These results are taken from patent US20240018158A1, “BRM TARGETING COMPOUNDS AND ASSOCIATED METHODS OF USE” (Prelude Therapeutics Incorporated, priority 2020, published 2024).

The structures appear in SMILES notation. Where only a bound is given, the exact number is not on record here.

Broadly, the DC50 is the concentration at which degradation of the target reaches its halfway point.

One assay addresses SMARCA4 (Homo sapiens (Human), UniProt P51532). The experiment in a line: SMARCA4 HiBiT degradation assay in HeLa cells. Format: cell-based. The conditions noted are these: 18 hours; for DC50: read-out: DC50 (SM4-HeLa) SMARCA4 degradation potency; for Dmax: HeLa, read-out: Dmax % (SM4-HeLa) maximum SMARCA4 degradation within the concentrations tested. In outline: (§1)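 HeLa monoclonal lines carrying a heterozygous HiBiT knock-in on SMARCA2 or SMARCA4 were seeded at 2500 cells/well in EMEM with 10% FBS. After 18 h compound exposure at 37 °C, Nano-Glo HiBiT lytic detection ran 30-60 min at RT before the luminescence read. Values are from curve fits.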
For orientation: HiBiT is a short tag that completes a luciferase, so light tracks the accessible tagged protein.

Another assay deals with SMARCA2 (Homo sapiens (Human), UniProt P51531). The experiment in a line: SMARCA2 HiBiT degradation assay in HeLa cells. Format: cell-based. The conditions noted are these: 18 hours; for DC50: read-out: DC50 (SM2-HeLa) SMARCA2 degradation potency; for Dmax: read-out: Dmax % (SM2-HeLa) maximum SMARCA2 degradation within the concentrations tested. The procedure, abridged:
as §1

Sequence of SMARCA2 (P51531 whole entry): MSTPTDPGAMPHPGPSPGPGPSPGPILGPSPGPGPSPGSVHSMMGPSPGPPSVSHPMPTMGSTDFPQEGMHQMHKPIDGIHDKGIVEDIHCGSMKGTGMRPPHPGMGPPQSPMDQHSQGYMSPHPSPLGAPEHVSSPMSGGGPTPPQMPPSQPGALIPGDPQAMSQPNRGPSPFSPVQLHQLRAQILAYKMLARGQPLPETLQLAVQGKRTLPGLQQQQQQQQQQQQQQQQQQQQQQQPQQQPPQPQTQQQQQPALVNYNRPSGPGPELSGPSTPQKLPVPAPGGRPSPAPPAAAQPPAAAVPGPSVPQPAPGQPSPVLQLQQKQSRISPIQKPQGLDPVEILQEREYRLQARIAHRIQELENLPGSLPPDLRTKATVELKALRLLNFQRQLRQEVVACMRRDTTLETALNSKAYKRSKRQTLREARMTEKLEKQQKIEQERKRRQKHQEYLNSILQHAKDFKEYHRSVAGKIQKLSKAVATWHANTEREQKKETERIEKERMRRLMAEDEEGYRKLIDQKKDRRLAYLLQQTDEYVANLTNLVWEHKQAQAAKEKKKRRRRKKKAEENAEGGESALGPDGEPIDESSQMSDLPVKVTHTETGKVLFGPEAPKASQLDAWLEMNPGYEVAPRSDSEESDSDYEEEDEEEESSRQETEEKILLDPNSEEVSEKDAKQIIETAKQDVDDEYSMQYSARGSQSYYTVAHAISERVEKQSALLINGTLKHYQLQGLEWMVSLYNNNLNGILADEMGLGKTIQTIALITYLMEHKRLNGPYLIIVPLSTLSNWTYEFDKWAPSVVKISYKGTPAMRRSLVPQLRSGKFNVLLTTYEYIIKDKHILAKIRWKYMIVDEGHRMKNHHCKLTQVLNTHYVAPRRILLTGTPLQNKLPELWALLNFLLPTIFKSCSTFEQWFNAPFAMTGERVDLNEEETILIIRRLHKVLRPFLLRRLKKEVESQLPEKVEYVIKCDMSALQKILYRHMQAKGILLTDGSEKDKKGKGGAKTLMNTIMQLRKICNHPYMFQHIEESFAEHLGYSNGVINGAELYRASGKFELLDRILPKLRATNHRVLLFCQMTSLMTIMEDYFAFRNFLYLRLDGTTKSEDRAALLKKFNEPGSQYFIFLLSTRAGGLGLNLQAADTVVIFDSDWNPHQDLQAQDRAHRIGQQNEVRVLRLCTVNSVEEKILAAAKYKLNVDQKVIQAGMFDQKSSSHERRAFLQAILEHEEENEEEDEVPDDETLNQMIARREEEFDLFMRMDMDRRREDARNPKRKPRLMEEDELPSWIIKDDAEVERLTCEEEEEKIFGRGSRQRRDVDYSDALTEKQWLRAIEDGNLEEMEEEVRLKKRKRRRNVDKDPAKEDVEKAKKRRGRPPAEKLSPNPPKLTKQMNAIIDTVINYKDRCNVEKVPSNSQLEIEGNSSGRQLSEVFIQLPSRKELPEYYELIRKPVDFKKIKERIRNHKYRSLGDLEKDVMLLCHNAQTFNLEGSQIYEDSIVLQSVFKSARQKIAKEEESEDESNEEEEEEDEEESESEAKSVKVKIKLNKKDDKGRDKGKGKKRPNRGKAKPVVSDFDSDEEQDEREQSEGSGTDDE
Sequence of SMARCA4 (P51532 whole entry): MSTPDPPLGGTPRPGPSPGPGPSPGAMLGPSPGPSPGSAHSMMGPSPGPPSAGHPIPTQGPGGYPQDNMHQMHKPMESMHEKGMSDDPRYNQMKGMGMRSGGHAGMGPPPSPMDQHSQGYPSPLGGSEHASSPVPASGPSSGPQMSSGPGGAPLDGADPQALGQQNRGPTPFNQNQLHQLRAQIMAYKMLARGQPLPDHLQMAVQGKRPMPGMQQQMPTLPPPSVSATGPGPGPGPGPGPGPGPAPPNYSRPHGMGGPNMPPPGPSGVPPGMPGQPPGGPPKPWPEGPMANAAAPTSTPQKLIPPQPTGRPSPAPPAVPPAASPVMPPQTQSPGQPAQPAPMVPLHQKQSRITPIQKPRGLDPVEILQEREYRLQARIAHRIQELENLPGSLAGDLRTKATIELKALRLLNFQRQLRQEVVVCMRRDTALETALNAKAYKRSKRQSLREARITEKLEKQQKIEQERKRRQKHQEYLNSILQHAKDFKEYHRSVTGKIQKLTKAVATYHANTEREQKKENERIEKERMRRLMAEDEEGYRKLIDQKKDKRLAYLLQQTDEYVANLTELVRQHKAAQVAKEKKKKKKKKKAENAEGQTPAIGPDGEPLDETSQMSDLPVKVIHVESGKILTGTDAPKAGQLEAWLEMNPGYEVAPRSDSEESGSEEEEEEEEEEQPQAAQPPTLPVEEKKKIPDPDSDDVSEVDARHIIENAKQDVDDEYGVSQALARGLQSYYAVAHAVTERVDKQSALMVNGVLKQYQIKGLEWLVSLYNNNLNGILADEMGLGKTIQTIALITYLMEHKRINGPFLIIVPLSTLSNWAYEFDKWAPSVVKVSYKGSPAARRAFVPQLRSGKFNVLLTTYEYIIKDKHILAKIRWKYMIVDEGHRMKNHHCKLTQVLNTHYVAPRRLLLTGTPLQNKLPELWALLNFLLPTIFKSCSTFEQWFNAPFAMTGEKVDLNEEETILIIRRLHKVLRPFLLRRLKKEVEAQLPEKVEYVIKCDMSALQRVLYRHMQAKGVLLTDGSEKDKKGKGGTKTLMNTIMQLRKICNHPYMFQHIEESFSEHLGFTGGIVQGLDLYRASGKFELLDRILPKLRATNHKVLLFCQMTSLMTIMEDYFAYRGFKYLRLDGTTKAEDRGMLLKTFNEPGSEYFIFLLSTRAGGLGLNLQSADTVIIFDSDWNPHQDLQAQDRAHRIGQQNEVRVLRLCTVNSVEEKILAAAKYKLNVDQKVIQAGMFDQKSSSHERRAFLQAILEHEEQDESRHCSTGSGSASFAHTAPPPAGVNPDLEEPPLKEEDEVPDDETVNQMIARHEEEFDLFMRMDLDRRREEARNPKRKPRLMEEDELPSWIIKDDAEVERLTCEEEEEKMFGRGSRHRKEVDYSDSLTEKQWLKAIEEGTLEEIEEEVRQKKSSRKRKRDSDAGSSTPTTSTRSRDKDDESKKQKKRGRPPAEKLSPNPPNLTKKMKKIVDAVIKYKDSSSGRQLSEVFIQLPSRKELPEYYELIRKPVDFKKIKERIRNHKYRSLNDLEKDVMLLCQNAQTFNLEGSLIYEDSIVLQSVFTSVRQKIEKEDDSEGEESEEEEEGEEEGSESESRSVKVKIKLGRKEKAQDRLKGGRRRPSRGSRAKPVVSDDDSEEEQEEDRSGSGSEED

`Cc1ncsc1-c1ccc([C@H](C)NC(=O)[C@@H]2C[C@@H](O)CN2C(=O)[C@@H](c2cc(OCCN3CCN4c5cc(-c6ccccc6O)nnc5NC(C)C4C3)no2)C(C)C)cc1` (stereo partly drawn) [Example 95, (2S,4R)-4-hydroxy-1-((2R)-2-(3-(2-(2-(2-hydroxyphenyl)-6-methyl-5,6,6a,7,9,10-hexahydro-8H-pyrazino[1′,2′:4,5]pyrazino[2,3-c]pyridazin-8-yl)ethoxy)isoxazol-5-yl)-3-methylbutanoyl)-N-((S)-1-(4-(4-methylthiazol-5-yl)phenyl)ethyl)pyrrolidine-2-carboxamide]: at SMARCA4, the DC50 is less than 100 nM and the Dmax was more than 75%. At SMARCA2, the DC50 is less than 100 nM and the Dmax was more than 75%.
Consider `Cc1ncsc1-c1ccc([C@H](C)NC(=O)[C@@H]2C[C@@H](O)CN2C(=O)[C@@H](c2cc(OCCN3CCC(N4CCN5c6cc(-c7ccccc7O)nnc6NC(C)C5C4)CC3)no2)C(C)C)cc1` (stereo partly drawn) [Example 96, (2S,4R)-4-hydroxy-1-((2R)-2-(3-(2-(4-(2-(2-hydroxyphenyl)-6-methyl-5,6,6a,7,9,10-hexahydro-8H-pyrazino[1′,2′:4,5]pyrazino[2,3-c]pyridazin-8-yl)piperidin-1-yl)ethoxy)isoxazol-5-yl)-3-methylbutanoyl)-N-((S)-1-(4-(4-methylthiazol-5-yl)phenyl)ethyl)pyrrolidine-2-carboxamide], for which, at SMARCA4, the DC50 is less than 100 nM and the Dmax was more than 75%. For the same compound, on SMARCA2, the DC50 was less than 100 nM and the Dmax is more than 75%.
For `Cc1ncsc1-c1ccc([C@H](C)NC(=O)[C@@H]2C[C@@H](O)CN2C(=O)[C@@H](c2cc(O[C@@H](C)CN3CCC(N4CCN5c6cc(-c7ccccc7O)nnc6NC(C)C5C4)CC3)no2)C(C)C)cc1` (stereo partly drawn) [Example 97, (2S,4R)-4-hydroxy-1-((2R)-2-(3-(((2S)-1-(4-(2-(2-hydroxyphenyl)-6-methyl-5,6,6a,7,9,10-hexahydro-8H-pyrazino[1′,2′:4,5]pyrazino[2,3-c]pyridazin-8-yl)piperidin-1-yl)propan-2-yl)oxy)isoxazol-5-yl)-3-methylbutanoyl)-N-((S)-1-(4-(4-methylthiazol-5-yl)phenyl)ethyl)pyrrolidine-2-carboxamide], on SMARCA4, the DC50 was less than 100 nM and the Dmax was more than 75%. In addition, at SMARCA2, the DC50 was less than 100 nM and the Dmax was more than 75%.
In the case of `Cc1ncsc1-c1ccc([C@H](C)NC(=O)[C@@H]2C[C@@H](O)CN2C(=O)[C@@H](c2cc(OCCN3CCC(C(=O)N4CCN5c6cc(-c7ccccc7O)nnc6NC[C@H]5C4)CC3)no2)C(C)C)cc1` [Example 98, (2S,4R)-4-hydroxy-1-((R)-2-(3-(2-(4-((S)-2-(2-hydroxyphenyl)-6,6a,7,8,9,10-hexahydro-5H-pyrazino[1′,2′:4,5]pyrazino[2,3-c]pyridazine-8-carbonyl)piperidin-1-yl)ethoxy)isoxazol-5-yl)-3-methylbutanoyl)-N-((S)-1-(4-(4-methylthiazol-5-yl)phenyl)ethyl)pyrrolidine-2-carboxamide], on SMARCA4, the DC50 was less than 100 nM and the Dmax is more than 75%. Moreover, on SMARCA2, the DC50 is less than 100 nM and the Dmax is more than 75%.
As for `Cc1ncsc1-c1ccc([C@H](C)NC(=O)[C@@H]2C[C@@H](O)CN2C(=O)[C@@H](c2cc(OCCN3CCC(N(C)C4CCN5c6cc(-c7ccccc7O)nnc6NCC5C4)CC3)no2)C(C)C)cc1` (stereo partly drawn) [Example 99, (2S,4R)-4-hydroxy-1-((2R)-2-(3-(2-(4-((2-(2-hydroxyphenyl)-6,6a,7,8,9,10-hexahydro-5H-pyrido[1′,2′:4,5]pyrazino[2,3-c]pyridazin-8-yl)(methyl)amino)piperidin-1-yl)ethoxy)isoxazol-5-yl)-3-methylbutanoyl)-N-((S)-1-(4-(4-methylthiazol-5-yl)phenyl)ethyl)pyrrolidine-2-carboxamide], on SMARCA4, the DC50 is less than 100 nM and the Dmax is more than 75%. Besides, at SMARCA2, the DC50 is less than 100 nM and the Dmax was more than 75%.
With `Cc1ncsc1-c1ccc([C@H](C)NC(=O)[C@@H]2C[C@@H](O)CN2C(=O)[C@@H](c2cc(O[C@@H](C)CN3CCC(CN4CCN5c6cc(-c7ccccc7O)nnc6NC[C@H]5C4)CC3)no2)C(C)C)cc1` [Example 100, (2S,4R)-4-hydroxy-1-((R)-2-(3-(((S)-1-(4-(((S)-2-(2-hydroxyphenyl)-5,6,6a,7,9,10-hexahydro-8H-pyrazino[1′,2′:4,5]pyrazino[2,3-c]pyridazin-8-yl)methyl)piperidin-1-yl)propan-2-yl)oxy)isoxazol-5-yl)-3-methylbutanoyl)-N-((S)-1-(4-(4-methylthiazol-5-yl)phenyl)ethyl)pyrrolidine-2-carboxamide], the 50% degradation concentration (DC50) at SMARCA4 and on SMARCA2 was less than 100 nM each time. Also, the Dmax on SMARCA4 and on SMARCA2 was more than 75% each time.
In the case of `Cc1ncsc1-c1ccc([C@H](C)NC(=O)[C@@H]2C[C@@H](O)CN2C(=O)[C@@H](c2cc(OCCN3CCC(CN4C[C@@H]5CNc6nnc(-c7ccccc7O)cc6N5C[C@@H]4C)CC3)no2)C(C)C)cc1` [Example 101, (2S,4R)-4-hydroxy-1-((R)-2-(3-(2-(4-(((6aS,9S)-2-(2-hydroxyphenyl)-9-methyl-5,6,6a,7,9,10-hexahydro-8H-pyrazino[1′,2′:4,5]pyrazino[2,3-c]pyridazin-8-yl)methyl)piperidin-1-yl)ethoxy)isoxazol-5-yl)-3-methylbutanoyl)-N-((S)-1-(4-(4-methylthiazol-5-yl)phenyl)ethyl)pyrrolidine-2-carboxamide], the DC50 at SMARCA4 and on SMARCA2 was less than 100 nM in each case. Also, the Dmax on SMARCA4 and on SMARCA2 was more than 75% in each case.
On to `Cc1ncsc1-c1ccc([C@H](C)NC(=O)[C@@H]2C[C@@H](O)CN2C(=O)[C@@H](c2cc(OCCN3CCC(N4C[C@@H]5CNc6nnc(-c7ccccc7O)cc6N5C[C@@H]4C)C3)no2)C(C)C)cc1` (stereo partly drawn) [Example 102, (2S,4R)-4-hydroxy-1-((2R)-2-(3-(2-(3-((6aS,9S)-2-(2-hydroxyphenyl)-9-methyl-5,6,6a,7,9,10-hexahydro-8H-pyrazino[1′,2′:4,5]pyrazino[2,3-c]pyridazin-8-yl)pyrrolidin-1-yl)ethoxy)isoxazol-5-yl)-3-methylbutanoyl)-N-((S)-1-(4-(4-methylthiazol-5-yl)phenyl)ethyl)pyrrolidine-2-carboxamide], for which, at SMARCA4, the DC50 was less than 100 nM and the Dmax is more than 75%. At SMARCA2, the DC50 is less than 100 nM and the Dmax was more than 75%.
